“Also recorded” adds a separate entry of the source. Where two headings read alike, the source gives them in different places.
What was measured:
NET = biological target: T1, NET (Homo sapiens, UniProt P23975); experiment: NET radioligand binding with [3H]nisoxetine
T1 construct: expressed in transfected cells; host or cells: HEK293
Protocol: (§1) Radioligand Binding. Affinity of the test compounds for SERT, NET, and DAT was determined in radioligand binding experiments with [^3H]imipramine, [^3]nisoxetine, and [^3H]WIN35,428, respectively, by WuXi AppTec (Hong Kong) Limited, under the conditions described in Table 15.

DAT = biological target: T2, DAT (Homo sapiens, UniProt Q01959); experiment: DAT radioligand binding with [3H]WIN35,428
T2 construct: expressed in transfected cells; host or cells: CHO (uptake)
Protocol: as §1

[1] = RLM stability (Low Activity); assay type: in vitro ADME, Sprague Dawley rats; settings: male, Sprague Dawley, rat, liver microsomes, pH 7.4, Condition 1 (Low Activity), 0.50 mg protein/mL
In short: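 Pooled male Sprague Dawley rat liver microsomes (0.50 mg/mL) in PBS pH 7.4 with 1 mM MgCl2 and 1 mM NADPH; compound 1 μM, 1.0% solvent, 37° C. Six time points over 60 min, parent remaining by LC-MS/MS; kel, t1/2 and Clint from linear regression of ln(AUC) versus time.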

SERT = biological target: T3, SERT (Homo sapiens, UniProt P31645); experiment: SERT radioligand binding with [3H]imipramine
T3 construct: expressed in transfected cells; host or cells: HEK293
Protocol: as §1

[2] = MLM stability (Low Activity); assay type: in vitro ADME, CD-1 mice; settings: male, CD-1, mouse, liver microsomes, pH 7.4, Condition 1 (Low Activity), 0.50 mg protein/mL
In short: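 Pooled male CD-1 mouse liver microsomes (0.50 mg/mL) with 1 μM compound and 1 mM NADPH in 100 mM PBS pH 7.4 with 1 mM MgCl2, 37 °C, six time points over 60 min. Parent remaining by LC-MS/MS; kel, t1/2 and Clint from linear regression of ln(AUC) versus time.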

[3] = biological target: T4, norepinephrine transporter (NET) (Homo sapiens, UniProt P23975); experiment: Fluorescent substrate uptake inhibition, NET; assay type: cell-based
T4 construct: expressed in transfected cells; host or cells: HEK293

[4] = biological target: MK-801 binding site of the N-methyl-D-aspartate receptor (NMDAR); experiment: NMDAR radioligand binding with [3H]MK-801, Method B; design: species or system Sprague Dawley rat; settings: MK-801 site, Method B, male Sprague Dawley rat cortex, 5.0 nM [3H]MK-801; read-out: NMDAR Ki ± SEM
Protocol: Radioligand Binding—Method B. Affinity of the test compounds for NMDAR was determined in radioligand binding experiments with [^3H]MK-801 by WuXi AppTec (Hong Kong) Limited, under the conditions described in Table 13.

[5] = biological target: T5, dopamine transporter (DAT) (Homo sapiens, UniProt Q01959); experiment: Fluorescent substrate uptake inhibition, DAT; assay type: cell-based
T5 construct: expressed in transfected cells; host or cells: CHO (uptake)

[6] = HLM stability (Low Activity, Alternative Method); assay type: in vitro ADME; settings: both sexes, human, liver microsomes, pH 7.4, Condition 1 column, values marked *: Low Activity, 0.50 mg protein/mL
In short: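 Pooled male and female human liver microsomes (0.50 mg/mL) in 100 mM PBS pH 7.4 with 1 mM MgCl2 and 1 mM NADPH, compound 1 μM (1.0% solvent), 37° C with shaking, six time points over 60 min. Parent remaining measured by LC-MS/MS; kel, t1/2 and Clint from linear regression of ln(AUC) versus time.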

[7] = biological target: T6, vesicular monoamine transporter 2 (VMAT2) (Homo sapiens, UniProt Q05940); experiment: Fluorescent substrate uptake inhibition, VMAT2; assay type: cell-based; settings: 10 μM, transfected cells
T6 construct: expressed in transfected cells

[8] = biological target: T7, serotonin transporter (SERT) (Homo sapiens, UniProt P31645); experiment: Fluorescent substrate uptake inhibition, SERT; assay type: cell-based
T7 construct: expressed in transfected cells; host or cells: HEK293

[9] = Oral bioavailability in mice, Method A; assay type: in vivo; settings: CD-1 mice; for F: 10 mg/kg; for half-life / Cmax / AUC(0-inf): male, mouse
Protocol: Animals. Male CD-1 mice were used in these studies Animals were randomly assigned to treatment groups and were fasted for 4 h before dosing.
Drugs. Test compounds were dissolved in normal saline (ketamine) or de-ionized water (other compounds) and administered intravenously (iv) or orally (po) at a dose of 10 mg/kg (calculated based on freebase) and at a volume of 5 mL/kg body weight. Compounds were tested as the racemates (indicated by “rac” nomenclature) or pure enantiomers (indicated by “R” or “S” nomenclature).
Sample Collection and Bioanalysis. Blood samples were collected under 2,2,2-tribromoethanol anesthesia (150 mg/kg, ip) from the orbital sinus at 0.083, 0.25, 0.5, 1, 2, 4, 8 and 24 h (4 animals per time point) into microcontainers containing K2EDTA Immediately after collection of blood, mice were euthanized by cervical dislocation and brain samples were collected at the same time points. All samples were immediately processed, flash-frozen, and stored at −70° C. until subsequent analysis. Plasma samples were separated by centrifugation of whole blood and aliquots (50 μL) were mixed with 200 μL of internal standard solution (400 ng/mL in 1:1 v/v CH3CN:MeOH). After mixing by pipetting and centrifuging for 4 min at 6000 rpm, 0.5 μL of each supernatant was analyzed for drug using a fit-for-purpose liquid chromatography-tandem mass spectrometry (LC-MS/MS) method, with authentic samples of each analyte used for calibration and identification. Brain samples (weight 100 mg±1 mg) were dispersed in 500 μL, of internal standard solution (400 ng/mL in 4:1 v/v MeOH:water) using zirconium oxide beads (115 mg±5 mg) in The Bullet Blender® homogenizer for 30 s at speed 8. After homogenization, the samples were centrifuged for 4 min at 14,000 rpm and 0.5 μL of each supernatant was analyzed for drug using a fit-for-purpose LC-MS/MS method, with authentic samples of each analyte used for calibration and identification.
Data Analysis. The drug concentrations of samples below the lower limit of quantitation (LLOQ) were designated as zero. Pharmacokinetic data analysis was performed using noncompartmental, bolus injection or extravascular input analysis models in WinNonlin 5.2 (PharSight). Data points below LLOQ were presented as missing to improve validity of t112 calculations.

[10] = biological target: MK-801 binding site of the N-methyl-D-aspartate receptor (NMDAR); experiment: NMDAR radioligand binding with [3H]MK-801, Method A; design: species or system Wistar rat; settings: MK-801 site, Method A, Wistar rat brain (minus cerebellum), 5.0 nM [3H]MK-801; read-out: NMDAR Ki ± SEM
Protocol: Radioligand Binding—Method A. Affinity of the test compounds for NMDAR was determined in radioligand binding experiments with [^3H]MK-801 by Eurofins Panlabs, Inc., using methods adapted from the literature (Javitt et al. 1987; Reynolds et al. 1989) and under the conditions described in Table 12.

mice (forced swim test) = experiment: Forced swim test in mice, 30-minute pre-treatment; assay type: in vivo, Swiss Webster mice; settings: s.c., 30 minutes before test, relative to vehicle
Protocol: Animals. Male Swiss Webster mice, aged 4-5 weeks (body weight 25-30 g, Envigo) were used in the experiments Animals were housed in groups of 4-5 under controlled temperatures and 12-hour light/dark cycles, with ad libitum food (Teklad 7001 rodent diet) and water. These studies were carried out in strict accordance with the recommendations in the Guide for the Care and Use of Laboratory Animals of the National Institutes of Health. All efforts were made to minimize suffering.
Drugs and Drug Administration. Imipramine hydrochloride was administered intraperitoneally (i.p.) at a dose of 30 mg/kg. Other compounds were tested as the racemates (indicated by “rac” nomenclature) and were administered subcutaneously (s.c.) as the hydrochloride salts. Normal saline was used as the vehicle and all compounds were administered at a volume of 10 mL/kg, 30 minutes before behavioral testing.
Forced Swim Test (FST). Group size was n=10 per treatment Animals were acclimated to the testing room 30 minutes prior to behavioral testing. Mice were placed individually in a cylinder of water measuring 5 inches wide by 10 inches tall and maintained at 24-25° C. The activity of each mouse was recorded for 6 minutes using Noldus Ethovision tracking software, with periods of inactivity being automatically quantified.
Statistical Analysis. The data points shown are the mean±standard error of the mean (SEM). Analysis was performed using GraphPad Prism 6. Indicated statistical comparisons represent the results of unpaired, two-tailed t tests relative to vehicle (not corrected for multiple comparisons).

[11] = HLM stability (High Activity); assay type: in vitro ADME; settings: both sexes, human, liver microsomes, pH 7.4, Condition 2 (High Activity), 1.0 mg protein/mL
In short: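 Pooled male and female human liver microsomes, 1.0 mg protein/mL, in 100 mM PBS pH 7.4 with NADPH-regenerating system; compound 1 μM at 37° C, five time points over 60 min. Parent remaining by LC-MS/MS; kel, t1/2 and Clint from linear regression of ln(AUC) versus time.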

[12] = HLM stability (Low Activity); assay type: in vitro ADME; settings: both sexes, human, liver microsomes, pH 7.4, Condition 1 (Low Activity), 0.42 mg protein/mL
Protocol: For some of the compounds, stability was tested under two microsomal incubation conditions, one with normal enzymatic activity (low activity) and one with higher enzymatic loading, longer incubation time, and lower compound concentration (high activity) intended to increase metabolic lability.
HLM Stability (Low Activity). Pooled HLM from adult male and female donors (XenoTech H0630) were used. Microsomal incubations were carried out in 96-well plates in 5 aliquots of 40 μL, each (one for each time point). Liver microsomal incubation medium consisted of PBS (100 mM, pH 7.4), MgCl2 (3.3 mM), NADPH (3 mM), glucose-6-phosphate (5.3 mM), and glucose-6-phosphate dehydrogenase (0.67 units/mL), with 0.42 mg of liver microsomal protein per mL. Control incubations were performed by replacing the NADPH-cofactor system with PBS. Test compounds (2 μM, final solvent concentration 1.6%) were incubated with microsomes at 37° C., shaking at 100 rpm. Incubations were performed in duplicate. Five time points over 40 minutes were analyzed. The reactions were stopped by adding 12 volumes of 90% acetonitrile-water to incubation aliquots, followed by protein sedimentation by centrifugation at 5500 rpm for 3 minutes. Supernatants were analyzed for parent compound remaining using a fit-for-purpose liquid chromatography-tandem mass spectrometry (LC-MS/MS) method, with authentic samples of each analyte used for identity confirmation.
Data Analysis. The elimination constant (kel), half-life (t1/2) and intrinsic clearance (Clint) were determined in a plot of […] versus time, using linear regression analysis.

[13] = calculated based on brain exposure
[14] = brain, 10 mg/kg iv, read-out: t1/2 (iv)
[15] = brain, 10 mg/kg po, read-out: t1/2 (po)
[16] = plasma, 10 mg/kg iv, read-out: AUC0-inf (iv) (converted)
[17] = plasma, 10 mg/kg iv, read-out: t1/2 (iv)
[18] = plasma, 10 mg/kg po, read-out: AUC0-inf (po) (converted)
[19] = plasma, 10 mg/kg po, read-out: t1/2 (po)
[20] = plasma, absolute oral bioavailability

T5 sequence (Q01959 whole entry, species assumed): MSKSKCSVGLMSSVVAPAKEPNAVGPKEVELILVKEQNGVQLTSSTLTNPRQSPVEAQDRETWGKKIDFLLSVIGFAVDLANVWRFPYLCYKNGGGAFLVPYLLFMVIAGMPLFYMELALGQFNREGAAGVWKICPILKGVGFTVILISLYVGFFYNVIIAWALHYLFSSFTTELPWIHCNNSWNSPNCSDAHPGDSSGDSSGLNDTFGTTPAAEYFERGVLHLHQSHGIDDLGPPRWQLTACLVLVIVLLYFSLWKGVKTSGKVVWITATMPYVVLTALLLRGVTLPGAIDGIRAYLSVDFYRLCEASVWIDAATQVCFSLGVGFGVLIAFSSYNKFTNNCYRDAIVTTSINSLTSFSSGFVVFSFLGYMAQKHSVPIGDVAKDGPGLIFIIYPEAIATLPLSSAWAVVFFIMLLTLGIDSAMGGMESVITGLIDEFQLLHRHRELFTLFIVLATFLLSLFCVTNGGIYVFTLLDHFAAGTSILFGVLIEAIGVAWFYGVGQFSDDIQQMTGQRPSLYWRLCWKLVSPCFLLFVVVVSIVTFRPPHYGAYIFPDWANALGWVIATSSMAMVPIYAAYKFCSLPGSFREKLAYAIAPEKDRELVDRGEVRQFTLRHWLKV
T7 sequence (P31645 whole entry, species assumed): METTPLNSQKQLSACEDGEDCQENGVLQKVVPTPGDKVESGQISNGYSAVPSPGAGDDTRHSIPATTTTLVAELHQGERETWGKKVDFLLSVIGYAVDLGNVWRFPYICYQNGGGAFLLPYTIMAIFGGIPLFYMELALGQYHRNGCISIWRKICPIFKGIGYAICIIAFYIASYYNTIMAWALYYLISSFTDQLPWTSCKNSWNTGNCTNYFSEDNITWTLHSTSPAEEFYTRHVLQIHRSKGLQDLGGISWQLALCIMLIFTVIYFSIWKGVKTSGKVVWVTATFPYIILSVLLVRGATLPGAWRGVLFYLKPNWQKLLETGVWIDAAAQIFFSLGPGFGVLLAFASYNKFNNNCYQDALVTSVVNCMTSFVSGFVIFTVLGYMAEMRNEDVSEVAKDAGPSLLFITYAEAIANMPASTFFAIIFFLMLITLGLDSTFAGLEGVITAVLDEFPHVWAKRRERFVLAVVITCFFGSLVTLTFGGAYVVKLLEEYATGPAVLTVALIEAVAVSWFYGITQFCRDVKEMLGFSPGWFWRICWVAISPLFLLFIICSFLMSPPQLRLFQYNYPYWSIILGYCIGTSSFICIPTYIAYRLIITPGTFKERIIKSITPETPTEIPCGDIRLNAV
T4 sequence (P23975 whole entry, species assumed): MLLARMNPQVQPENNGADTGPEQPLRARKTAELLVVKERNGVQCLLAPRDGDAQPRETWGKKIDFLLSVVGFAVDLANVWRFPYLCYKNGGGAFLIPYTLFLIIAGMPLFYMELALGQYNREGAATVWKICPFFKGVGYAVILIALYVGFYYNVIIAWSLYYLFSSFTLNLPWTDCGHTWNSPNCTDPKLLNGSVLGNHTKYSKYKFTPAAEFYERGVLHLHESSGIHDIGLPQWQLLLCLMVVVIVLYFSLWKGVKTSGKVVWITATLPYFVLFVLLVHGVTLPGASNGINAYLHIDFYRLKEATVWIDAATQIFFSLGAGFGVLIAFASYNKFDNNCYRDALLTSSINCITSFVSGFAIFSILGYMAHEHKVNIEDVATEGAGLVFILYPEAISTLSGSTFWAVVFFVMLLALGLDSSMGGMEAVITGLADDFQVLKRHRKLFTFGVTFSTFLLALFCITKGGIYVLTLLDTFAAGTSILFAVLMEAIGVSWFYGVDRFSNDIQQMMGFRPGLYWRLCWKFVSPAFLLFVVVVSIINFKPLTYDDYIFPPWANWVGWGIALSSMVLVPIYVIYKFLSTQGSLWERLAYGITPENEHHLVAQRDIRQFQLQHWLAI
T3 sequence (P31645 whole entry, species assumed): as the sequence (P31645 whole entry, species assumed) above
T2 sequence (Q01959 whole entry, species assumed): as the sequence (Q01959 whole entry, species assumed) above
T6 sequence (Q05940 whole entry, species assumed): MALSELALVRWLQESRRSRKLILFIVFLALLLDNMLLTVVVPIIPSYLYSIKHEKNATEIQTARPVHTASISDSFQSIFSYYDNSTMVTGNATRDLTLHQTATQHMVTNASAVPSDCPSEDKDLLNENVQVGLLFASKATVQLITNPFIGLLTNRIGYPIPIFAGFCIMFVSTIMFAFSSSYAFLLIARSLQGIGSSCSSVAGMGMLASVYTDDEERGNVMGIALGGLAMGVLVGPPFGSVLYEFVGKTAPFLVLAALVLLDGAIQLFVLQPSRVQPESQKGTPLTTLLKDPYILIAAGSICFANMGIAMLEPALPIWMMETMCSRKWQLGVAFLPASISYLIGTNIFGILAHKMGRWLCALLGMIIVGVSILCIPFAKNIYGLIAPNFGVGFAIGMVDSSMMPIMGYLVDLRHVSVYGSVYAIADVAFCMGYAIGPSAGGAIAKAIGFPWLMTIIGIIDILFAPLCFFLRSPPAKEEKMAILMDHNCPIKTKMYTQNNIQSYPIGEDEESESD
T1 sequence (P23975 whole entry, species assumed): as the sequence (P23975 whole entry, species assumed) above

| SMILES | AUC0-inf (iv) ([9]; brain, 10 mg/kg iv) | AUC0-inf (po) ([9]; brain, 10 mg/kg po) | F [9, 13] [%] | half-life [9, 14] [min] | Cmax ([9]; brain, 10 mg/kg po) [ng/g] | half-life [9, 15] [min] | AUC(0-inf) [9, 16] [ng·h/mL] | half-life [9, 17] [min] | Cmax ([9]; plasma, 10 mg/kg po) [ng/mL] | AUC(0-inf) [9, 18] [ng·h/mL] | half-life [9, 19] [min] | F [9, 20] [%] | immobility time in FST (mice (forced swim test)) | half-life at 1 μM [11] [min] | microsomal CLint at 1 μM [11] [µL/min/mg] | half-life at 2 μM [12] [h] | microsomal CLint at 2 μM [12] [µL/min/mg] | also measured |
| --- | --- | --- | --- | --- | --- | --- | --- | --- | --- | --- | --- | --- | --- | --- | --- | --- | --- | --- |
| CC(C)N[C@]1(c2ccccc2)CCCCC1=O [Compound 28S, (S)-2-(isopropylamino)-2-phenylcyclohexan-1-one] |  |  |  |  |  |  |  |  |  |  |  |  |  |  |  |  |  | Ki (NET): 13.5 µM; Ki (DAT): 6 µM; half-life at 1 μM [1]: 18.9 min; microsomal CLint at 1 μM [1]: 73.4 µL/min/mg; Ki (SERT): 12.3 µM; half-life at 1 μM [2]: 14.8 min; microsomal CLint at 1 μM [2]: 94 µL/min/mg; IC50 [3]: 4.7 µM; inhibition at 10 µM ([3]; 10 μM, HEK293 cells expressing NET): 48.7%; Ki [4]: 3 µM; IC50 [5]: 1.3 µM; inhibition at 10 µM ([5]; 10 μM, CHO cells expressing DAT): 58%; inhibitory activity at DAT ([5]; in words): significant inhibitory activity at DAT; half-life at 1 μM [6]: 76.6 min; microsomal CLint at 1 μM [6]: 18.1 µL/min/mg; inhibition at 10 µM [7]: -32.7%; IC50 [8]: 8.5 µM; inhibition at 10 µM ([8]; 10 μM, HEK293 cells expressing SERT): 22% |
| CNC1(c2ccccc2OC)CCCCC1=O (racemic) [Compound 4rac] | 292,000 ng*min/g | 135,000 ng*min/g | 46 | 19.9 | 1900 | 45.9 | 1650 | 20.6 | 958 | 850 | 42.6 | 51 | did not have effects | 819 | 1 | 43.2 | 1 | Ki [10]: 35 µM |
| CCNC1(c2cccc(OC)c2)CCCCC1=O (racemic) [Compound 2rac] | 279,000 ng*min/g | 11,800 ng*min/g | 4 | 16.1 | 420 | 16.6 | 1100 | 17.9 | 135 | 62.8 | 14 | 6 | reduced time immobile; also recorded: induced antidepressant-like effects | 199 | 3 | 4.85 | 6 |  |

From patent publication US11344510B2, “Arylcyclohexylamine derivatives and their use in the treatment of psychiatric disorders” (Gilgamesh Pharmaceuticals, Inc., priority 2019, dated 2022)
